In patent publication US5508293A, “Pyridinecarboxyimidamide compounds and the use thereof” (Kirin Beer Kabushiki Kaisha, priority 1992, dated 1996):

Columns and labels:
[1] = test system: spontaneously hypertensive rats (SHR), mean blood pressure; experiment: Antihypertensive activities on spontaneously hypertensive rat (intravenously); assay type: in vivo, rat (male spontaneously hypertensive rats; details: iv, anesthetized male SHR, i.v., cumulative dosing, read-out: ED20 (the dose which lowered the blood pressure by 20%)
Procedure: Animals were anesthetized with urethane: α-chloralose.
A cannula was inserted into the carotid artery for measuring the mean blood pressure via a pressure transducer. A test compound was cumulatively administered through the cannula inserted into the femoral vein with an interval of 30 minutes. Variation of blood pressure was determined as the percentage change in the blood pressure before administration of the test compound, and the ED20 (the dose which lowered the blood pressure by 20%) was calculated from a dose-response curve.

[2] = test system: beagles, blood pressure; experiment: Antihypertensive activity on anesthetized beagles (intravenously); assay type: in vivo, dog (beagles)
Procedure: Antihypertensive activities of 5-amino-N-cyano-N'-[2-(2-chlorophenyl)ethyl]-3-pyridinecarboximidamide (N-cyano-N'-[2-(2-chlorophenyl)ethyl]-5-(3aminopyridine)carboximidamide; Compound No. 6) according to the present invention was assessed by comparison with those of N-cyano-N'-[2-(2-chlorophenyl)ethyl]-3-pyridinecarboximidamide which is thought to be a wellknown compound most similar to the compound of the present invention (see Japanese Patent Laid-Open Publication No. 163061/1991).
Experiments were carried out with beagles (body weight, 9.2-10.4 kg) under anesthetization by intravenous administering 30 mg/kg of pentobarbital sodium. A cannula was inserted into the right femoral artery for measuring blood pressure. […]

[3] = test system: renal hypertensive beagles, blood pressure; experiment: Antihypertensive activities on renal hypertensive beagles (oral); assay type: in vivo, dog (2-kidney-1-clipped renal hypertensive beagles)
Procedure: Beagles (body weight, 9.0-11.0 kg) were anesthetized with 30 mg/kg of pentobarbital sodium intravenously. The left renal artery was carefully exposed through a flank incision, and wound with two silk sutures and ligated together with a 18G needle (external diameter; 1.2 mm) at two positions with the distance of 5 mm. A polyethylene tube for the measurement of blood pressure (IMG, PE-100) was inserted into the femoral artery, and the other terminal of the tube was exteriorized at the back of the neck. The polyethylene tube was filled with physiological saline containing 500 U/ml of heparin and sealed with a steel wire plug except on the measurement of the blood pressure. Antibiotics (penicilline and streptomycin, manufactured by Meiji Seika) were administered intramuscularly for three days after operation to prevent infections.
After 5-amino-N-cyano-N'-[2-(2-chlorophenyl)ethyl]-3-pyridinecarboximidamide was put into a No. 3 gelatin capsule, a gap was filled with lactose (100 mesh). The capsule was administered orally, and blood pressure was measured for 24 hours after administering the drug. Measurement was carried out without anesthetization under suspension with sling sheet. Blood pressure was measured by connecting the tube for measuring blood pressure to a pressure transducer (TP-400T; manufactured by Nihon Kohden) and recorded on a polygraph.

[4] = Acute toxicity, oral, Compound No. 6; assay type: in vivo, rat (male SD rats, 5 weeks old); details: rat, in vivo, male SD rats (5 weeks old)
Procedure: (§1) Acute toxicity of 5-amino-N-cyano-N'-[2-(2-chlorophenyl)ethyl]-3-pyridinecarboximidamide (Compound No. 6) of the present invention on oral administration was examined with male SD rats (5 weeks old). As a result, no rats died at the dose of 50 mg/kg. LD50 was in the range over 50 mg/kg.

[5] = test system: male SD rats; experiment: Acute toxicity, oral, Compound No. 6; assay type: in vivo, rat (male SD rats, 5 weeks old); details: 50 mg/kg, male SD rats
Procedure: as §1

N#CNC(=NCCc1ccccc1Cl)c1cncc(N)c1 [Compound No. 6, 5-amino-N-cyano-N'-[2-(2-chlorophenyl)ethyl]-3-pyridinecarboximidamide]
ED20 [1]: 4.6 µg/kg | decrease in blood pressure ([2]; i.v., 3-30 μg/kg): Dose-dependent decrease in blood pressure was observed | duration of the antihypertensive action ([2]; i.v., dose 3 μg/kg): 10 min | Antihypertensive activity (%) ([2]; i.v., dose 3 μg/kg, 0 min after dosage): 0.0% | Antihypertensive activity (%) ([2]; i.v., dose 3 μg/kg, 1 min after dosage): -3.9% | Antihypertensive activity (%) ([2]; i.v., dose 3 μg/kg, 2 min after dosage): -12.8% | Antihypertensive activity (%) ([2]; i.v., dose 3 μg/kg, 3 min after dosage): -10.3% | Antihypertensive activity (%) ([2]; i.v., dose 3 μg/kg, 5 min after dosage): -6.4% | Antihypertensive activity (%) ([2]; i.v., dose 3 μg/kg, 7.5 min after dosage): -3.9% | Antihypertensive activity (%) ([2]; i.v., dose 3 μg/kg, 10 min after dosage): -3.9% | duration of the antihypertensive action ([2]; i.v., dose 10 μg/kg): 45 min | Antihypertensive activity (%) ([2]; i.v., dose 10 μg/kg, 0 min after dosage): 0.0% | Antihypertensive activity (%) ([2]; i.v., dose 10 μg/kg, 1 min after dosage): -16.0% | Antihypertensive activity (%) ([2]; i.v., dose 10 μg/kg, 2 min after dosage): -22.7% | Antihypertensive activity (%) ([2]; i.v., dose 10 μg/kg, 3 min after dosage): -26.7% | Antihypertensive activity (%) ([2]; i.v., dose 10 μg/kg, 5 min after dosage): -26.7% | Antihypertensive activity (%) ([2]; i.v., dose 10 μg/kg, 7.5 min after dosage): -26.7% | Antihypertensive activity (%) ([2]; i.v., dose 10 μg/kg, 10 min after dosage): -26.7% | Antihypertensive activity (%) ([2]; i.v., dose 10 μg/kg, 15 min after dosage): -20.0% | Antihypertensive activity (%) ([2]; i.v., dose 10 μg/kg, 20 min after dosage): -16.0% | Antihypertensive activity (%) ([2]; i.v., dose 10 μg/kg, 30 min after dosage): -13.3% | Antihypertensive activity (%) ([2]; i.v., dose 10 μg/kg, 45 min after dosage): -6.7% | duration of the antihypertensive action ([2]; i.v., dose 30 μg/kg): 60 min | Antihypertensive activity (%) ([2]; i.v., dose 30 μg/kg, 0 min after dosage): 0.0% | Antihypertensive activity (%) ([2]; i.v., dose 30 μg/kg, 1 min after dosage): -29.3% | Antihypertensive activity (%) ([2]; i.v., dose 30 μg/kg, 2 min after dosage): -40.0% | Antihypertensive activity (%) ([2]; i.v., dose 30 μg/kg, 3 min after dosage): -42.7% | Antihypertensive activity (%) ([2]; i.v., dose 30 μg/kg, 5 min after dosage): -46.7% | Antihypertensive activity (%) ([2]; i.v., dose 30 μg/kg, 7.5 min after dosage): -44.0% | Antihypertensive activity (%) ([2]; i.v., dose 30 μg/kg, 10 min after dosage): -42.7% | Antihypertensive activity (%) ([2]; i.v., dose 30 μg/kg, 15 min after dosage): -40.0% | Antihypertensive activity (%) ([2]; i.v., dose 30 μg/kg, 20 min after dosage): -36.0% | Antihypertensive activity (%) ([2]; i.v., dose 30 μg/kg, 30 min after dosage): -33.3% | Antihypertensive activity (%) ([2]; i.v., dose 30 μg/kg, 45 min after dosage): -24.0% | Antihypertensive activity (%) ([2]; i.v., dose 30 μg/kg, 60 min after dosage): -16.0% | antihypertensive activity determined with the passage of time ([2]; summary statement): extremely potent and sustainable | Average blood pressure ([3]; 0.25 mg/kg p.o., 0 hour after administration): 122.4 ± 4.4 mmHg | Average blood pressure ([3]; 0.25 mg/kg p.o., 1 hour after administration): 100.9 ± 7.4 mmHg | Average blood pressure ([3]; 0.25 mg/kg p.o., 2 hour after administration): 85.7 ± 0.3 mmHg | Average blood pressure ([3]; 0.25 mg/kg p.o., 4 hour after administration): 102.8 ± 3.9 mmHg | Average blood pressure ([3]; 0.25 mg/kg p.o., 6 hour after administration): 110.1 ± 2.6 mmHg | Average blood pressure ([3]; 0.25 mg/kg p.o., 8 hour after administration): 112.6 ± 3.4 mmHg | Average blood pressure ([3]; 0.25 mg/kg p.o., 24 hour after administration): 118.8 ± 4.8 mmHg | Average blood pressure ([3]; 0.50 mg/kg p.o., 0 hour after administration): 126.6 ± 0.5 mmHg | Average blood pressure ([3]; 0.50 mg/kg p.o., 1 hour after administration): 68.1 ± 7.4 mmHg | Average blood pressure ([3]; 0.50 mg/kg p.o., 2 hour after administration): 84.8 ± 6.1 mmHg | Average blood pressure ([3]; 0.50 mg/kg p.o., 4 hour after administration): 99.7 ± 12.3 mmHg | Average blood pressure ([3]; 0.50 mg/kg p.o., 6 hour after administration): 106.2 ± 9.5 mmHg | Average blood pressure ([3]; 0.50 mg/kg p.o., 8 hour after administration): 114.4 ± 7.3 mmHg | Average blood pressure ([3]; 0.50 mg/kg p.o., 24 hour after administration): 111.8 ± 3.9 mmHg | decrease in blood pressure ([3]; oral, 0.25 and 0.5 mg/kg): successive decrease in blood pressure was observed | LD50 [4]: > 50 mg/kg | deaths [5]: no rats died
